Data on 1 compound can be found in article PMC12566971, “Polyprenylated Acylphloroglucinols from Hypericum rochelii and Hypericum olympicum—Cytotoxic Effects on Non-Tumorigenic Cell Lines and Antibacterial Potential” (Pharmaceuticals, 2025).

In brackets after ≈: the same amount, converted by molar mass. Several values for one entry are separate records, joined by “and”; a condition that tells them apart may be missing. Equal entries are not always repeated. Where two headings read alike, the source gives them in different places.

In one data set the test system is HEPG2. In words: MTT assay for cytotoxicity. Format: cell-based, human. The conditions noted are these: for IC50: Homo sapiens, HepG2. How it is done:
(§1) The MTT assay was performed according to Annex C, ISO 10993-5 [56] as in [116]. The panel of non-tumorigenic cell lines consisted of one murine (CCL-1 fibroblasts, which are recommended as a standard for cytotoxicity evaluation in Annex C of ISO 10993-5 [56]) and four human cell lines—HaCaT (immortalized epidermal keratinocytes), HGF (gingival fibroblasts), HEK-293 (embryonic cells from kidney epithelium), and HEPG2 (hepatoblastoma). Although technically a cancer cell line, HEPG2 is non-tumorigenic and retains many hepatocyte-related features in its proteome and a high degree of morphological and functional differentiation, also being a stage one hepatoblastoma.
(§2) CCL-1 was purchased from ATCC and HaCaT and HGF were bought from CLS Cell Lines Service (GmbH, Eppelheim, Germany). HEK-293 and HEPG2 were obtained from DSMZ. The cell culture medium for HaCaT and HEPG2 was Dulbecco’s Modified Eagle Medium (DMEM) with 4.5 g/L glucose (DMEM-HA). For HGF it was DMEM/F-12 (DMEM-12-A, a 1:1 mixture of DMEM and Ham’s F-12 medium). The cell medium for CCL-1 and HEK-293 was Eagle’s Minimum Essential Medium (MEM) (MEM-A). Ten percent heat-inactivated fetal bovine serum (FBS) was added to all media but to the one for the CCL-1 cells, to which 10% heat-inactivated horse serum was added. All media were supplemented with 2 mM L-glutamine and Penicillin/Streptomycin (Pen/Strep, 100×). The cell culture media, sera, and additives were from Capricorn Scientific (Düsseldorf, Germany).
(§3) GraphPad Prism software version 9 (GraphPad Software Inc., San Diego, CA, USA) was used to calculate the IC50 values from the MTT assays as in [116], as well as the MTC values, and the ELISA standard curves. The MTC values are, according to ISO 10993-5, the maximum concentration at which at least 70% of the cells are viable (nonlin fit, range).
For orientation: Formazan colour is commonly taken as a measure of viable cells.

The subject of a further data set is HaCaT. In words: MTT assay for cytotoxicity. The conditions noted are these: for IC50: Homo sapiens, HaCaT. The data set is classed as cell-based, human. How it is done: as §1, §2, §3
Data set [1] relates to Methicillin-Resistant S. aureus (MRSA). The conditions noted are these: ref [4],[29]; cited from earlier work.
The subject of a further data set is Streptococcus pyogenes. The following applies: ref [4],[29]; cited from earlier work.
The next data set relates to MRSA biofilm. The following applies: assessed and published previously, ref [29], cited from earlier work.
The subject of data set [2] is Methicillin-Resistant S. aureus (MRSA). In words: MIC and MBC evaluation (broth microdilution, agar plate assay). The data set is classed as cell-based, Staphylococcus aureus. How it is done:
The MIC and MBC assessment on the pathogenic bacteria and the candidate probiotic lactic acid bacteria was carried out by the broth microdilution assay (BMD) and the agar plate assay, respectively, as described in [4]. The metabolic (dehydrogenase) activity of the lactic acid bacteria was assessed as described in [4].
P. aeruginosa PAO1 ATCC 15692 was purchased from the American Type Cell Culture Collection (ATCC, Manassas, VA, USA). S. mutans DSM 20523 was bought from the German Collection of Microorganisms and Cell Cultures (DSMZ GmbH, Braunschweig, Germany). All other bacteria and strains were purchased as described in [4].
Background: Dilution methods test growth across graded concentrations, often in twofold steps.

Another data set concerns Enterococcus faecalis. The following applies: ref [4],[29]; cited from earlier work.
The test system of another data set is Staphylococcus aureus. The following applies: ref [4],[29]; cited from earlier work.
For another data set, the system named is human CYP450 3A4 isoform. As to the kind of experiment: ELISA for cytochrome P450 3A4 in HEPG2 cells. Format: in vitro ADME. How it is done: The effect on CYP450 was tested using the ELISA method on the HEPG2 liver cell line. As mentioned, it has weak or absent expression of the CYP450 superfamily, e.g., CYP3A4, CYP1A2, etc., and that low basal activity makes it a good model for studies of CYP inducers. In addition, these cells have the advantage of immortalization due to their cancerous nature. The standard curves after the two ELISA tests (Figure S7) were prepared as a standard dose–response curve, also called a four-parameter logistic (4-PL) curve.
The effect on human cytochrome P450 3A4, the major member of the CYP450 superfamily of enzymes, which is predominantly found in the liver and metabolizes approximately half of the drugs metabolized by CYP450 enzymes, was assayed using the CYP3A4 ELISA Kit (DL-CYP3A4-Hu, DLdevelop, Kelowna, BC, Canada). Sample selection and initial preparation were as for the total cytochrome ELISA. The experiment was performed according to the manufacturer’s instructions. This assay is a sandwich enzyme immunoassay based on the binding of CYP3A4 in standards and samples to a biotin-conjugated antibody specific for CYP3A4. […] The reaction was stopped by adding sulfuric acid solution, and the plate was read at 450 nm on a microplate reader ELx800 (BioTek Instruments, Inc.). The CYP3A4 concentration was determined by comparing the O.D. of the samples with the standard curve.
In general terms: ELISA stands for enzyme-linked immunosorbent assay.

The MBC is the smallest concentration meeting the test's criterion for killing. Consider `CC(C)=CCCC1(C)C(CC=C(C)C)CC2C(=O)C1(C(=O)C(C)C)C(=O)C(CC=C(C)C)=C2O` (stereo not drawn) [Olympiforin B], for which the IC50 in the data set on HEPG2 (MTT assay) was 4.5 µg/mL; in the data set on HEPG2 (converted to µM) it was 9.6 µM; with HaCaT (MTT assay), 1.71 µg/mL; with HaCaT (converted to µM) it was 3.65 µM; in the data set with MRSA biofilm (read-out: Median Biofilm Inhibitory Concentration (MBIC50), MRSA) it was 0.12 µM. Besides, the “Maximum tolerated concentration (MTC), HEPG2” value with HEPG2 (at least 70% of cells viable, ISO 10993-5) worked out at 1.54 µg/mL. The “Maximum tolerated concentration (MTC), HaCaT” value in the data set with HaCaT (concentration at which at least 70% of cells are viable, ISO 10993-5) is given as 0.52 µg/mL. The “MIC on bacteria, MRSA” value in data set [1] is given as 1 µg/mL (≈ 2.13 µM). The “MIC on bacteria, S. pyogenes” value in the data set with Streptococcus pyogenes is listed as 4 µg/mL (≈ 8.53 µM). Also, the “Median Biofilm Inhibitory Concentration (MBIC50), MRSA” value with MRSA biofilm is 0.05 (0.03 to 0.07) µg/mL. In addition, the “Minimum Biofilm Inhibitory Concentration (MBIC), MRSA” value in the data set on MRSA biofilm was 0.5 (1/2 × MIC) µg/mL and 1.07 µM; in the data set with MRSA biofilm (listed as olympiforin B), 0.5 µg/mL. Besides, the minimum bactericidal concentration (MBC) in data set [2] (Staphylococcus aureus, MRSA) is 68 µg/mL and 121 µM. Also, the “MBC/MIC ratio, MRSA” value in [2] (bactericidal if ≤ 4, bacteriostatic if > 4) is reported as 68. For the same compound, the “MIC on bacteria, E. faecalis” value in the data set on Enterococcus faecalis is recorded as 4 µg/mL (≈ 8.53 µM). Moreover, the “MIC on bacteria, S. aureus” value with Staphylococcus aureus was 1 µg/mL (≈ 2.13 µM). For the same compound, the “CYP450 3A4, Mean Diff. Co vs. agent (Tukey)” value in the data set on human CYP450 3A4 isoform (2×MIC, control minus treated) was 0.000325. Besides, in the data set with human CYP450 3A4 isoform (HEPG2, 24 h, concentrations inhibiting S. aureus), the “Induction of CYP450 3A4” value is listed as “hardly induce”.
